Experimental data from patent US9220705B2, “Method of treating colorectal cancer” (priority 2013, dated 2015).

Experiments:
[1] = tested on: panel of human tumor cell lines (A431, MCF-7, A375, HCT-15, SW480, CaCo-2, DLD-1); test: MTT cytotoxicity, comparison over the Table 1 panel; format: cell-based; conditions: average over seven cell lines of Table 1
Description: (§1) After 24 h, the medium was removed and replaced with a fresh one containing the compound to be studied, at the appropriate concentration, dissolved in 0.9% sodium chloride solution just before use. Triplicate cultures were established for each treatment. After 72 h, each well was treated with […] of a 5 mg mL^−1 MTT saline solution and, after 5 h of incubation, 100 μL of a sodium dodecylsulfate (SDS) solution in 0.01 M HCl were added. After an overnight incubation, the inhibition of cell growth induced by the tested complexes was determined by measuring the absorbance of each well at 570 nm using a BioRad 680 microplate reader. Mean absorbance for each drug dose was expressed as percentage of the control and plotted vs. drug concentration. Dose-response curves were fitted and IC50 values were calculated with four parameter logistic model (4PL).
The cytotoxicity was evaluated by means of the MTT test for 72 h treatment with increasing concentrations of the tested compounds.

[2] = tested on: 2008/C13*, LoVo/LoVo-OXP, LoVo MDR; test: MTT cytotoxicity, comparison over the Table 2 cell lines; format: cell-based, human; conditions: 2008 ovarian and LoVo colon sensitive cells
Description: as §1
A LoVo cell line retaining a multidrug resistance phenotype was also considered (LoVo MDR). Cross-resistance profiles were evaluated by means of the resistance factor (RF), which is defined as the ratio between the IC50 value for the resistant cells and that arising from the sensitive cells (Table 2).

Row | Structure (SMILES) | average cytotoxic activity compared with reference drugs [1] | cytotoxic activity towards sensitive lines compared with reference drugs [2]
1 | O=C1[O][Pt]2([NH][C@H]3CC[C@H](CC3)[NH]2)[O]C1=O [Compound 3, [SP-4-2-(cis)]-(1,4,cyclohexanediamine-N,N′)[ethanedioato(2)-O,O^1]platinum] | lower than that of oxaliplatin and comparable to that of compound 2 and cisplatin | less effective than oxaliplatin and cisplatin towards ovarian sensitive cell line and rather similar to cisplatin against LoVo colon cancer cells
2 | O=C([O][Pt]1([Cl])([Cl])([O]C(=O)C(Cl)Cl)[NH][C@H]2CC[C@H](CC2)[NH]1)C(Cl)Cl [Compound 5, (OC-6-33)-dichloro(cis-1,4-cyclohexanediamine-N,N′)bisdichloroacetateplatinum] | rather similar to oxaliplatin | better than cisplatin and similar to oxaliplatin
3 | O=C1[O][Pt]2([NH]C3CCC(CC3)[NH]2)[O]C(=O)C12CCC2 [Compound 6, [SP-4-2-(cis)]-(1,4-cyclohexanediamine-N,N′)[cyclobutane-1,1-dicarboxylate-O,O′]platinum] | lower than oxaliplatin and cisplatin | less effective than oxaliplatin and cisplatin
